# Patent publication US20020111274A1, “1-alkyl-3-[1-(substituted phenyl) benzotriazol-6-yl] uracils” (BASF Aktiengesellschaft, priority 2000, published 2002)
# Tests used:
# Design in all cases: scale not given here
# ABUTH Velvetleaf [1] = assay: Postemergence herbicidal evaluation, ABUTH; assay type: in vivo, Abutilon theophrasti, Medic.; conditions: postemergence spray, rated about two-three weeks after treatment
# How it was run: (§1)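 Plants are raised for roughly two weeks, then treated postemergence with compound dispersed in acetone/water (80/20) plus 1.0% seed oil adjuvant, at rates of about 0.006 kg to 0.400 kg per hectare. After greenhouse care, damage is scored two to three weeks later.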
# AMBEL Ragweed, Common [2] = assay: Postemergence herbicidal evaluation, AMBEL; assay type: in vivo, Ambrosia artemisifolia, L.; conditions: postemergence spray, rated about two-three weeks after treatment
# How it was run: as §1
# CASOB Sicklepod [3] = assay: Postemergence herbicidal evaluation, CASOB; assay type: in vivo, Cassia obtusifolia, L.; conditions: postemergence spray, rated about two-three weeks after treatment
# How it was run: as §1
# [4] = test system: CHEAL Lambsquarters, Common; assay: Postemergence herbicidal evaluation, CHEAL; assay type: in vivo, Chenopodium album, L.; conditions: postemergence spray, rated about two-three weeks after treatment
# How it was run: as §1
# ECHOG Barnyardgrass [5] = assay: Postemergence herbicidal evaluation, ECHOG; assay type: in vivo, Echinochloa crus-galli, (L.) Beau; conditions: postemergence spray, rated about two-three weeks after treatment
# How it was run: as §1
# GALAP Galium [6] = assay: Postemergence herbicidal evaluation, GALAP; assay type: in vivo, Galium aparine; conditions: postemergence spray, rated about two-three weeks after treatment
# How it was run: as §1
# [7] = test system: IPOHE Morningglory, Ivyleaf; assay: Postemergence herbicidal evaluation, IPOHE; assay type: in vivo, Ipomoea hederacea, (L.) Jacq.; conditions: postemergence spray, rated about two-three weeks after treatment
# How it was run: as §1
# SETVI Foxtail, Green [8] = assay: Postemergence herbicidal evaluation, SETVI; assay type: in vivo, Setaria viridis, (L.) Beau; conditions: postemergence spray, rated about two-three weeks after treatment
# How it was run: as §1
# GLXMAW Soybean, Williams [9] = assay: Postemergence herbicidal evaluation, GLXMAW; assay type: in vivo, Glycine max, (L.) Merr. cv Williams; conditions: postemergence spray, rated about two-three weeks after treatment
# How it was run: as §1
# [10] = test system: TRZAWR Wheat, Winter, cv Riband; assay: Postemergence herbicidal evaluation, TRZAWR; assay type: in vivo, Triticum aestivum; conditions: postemergence spray, rated about two-three weeks after treatment
# How it was run: as §1
# ORYSAT Rice, Tebonnet [11] = assay: Postemergence herbicidal evaluation, ORYSAT; assay type: in vivo, Oryza sativa, (L.); conditions: postemergence spray, rated about two-three weeks after treatment
# How it was run: as §1
# ZEAMX Corn, Field [12] = assay: Postemergence herbicidal evaluation, ZEAMX; assay type: in vivo, Zea mays, L. (Sammel-Bezeichnung); conditions: postemergence spray, rated about two-three weeks after treatment
# How it was run: as §1
# ABUTH Velvetleaf [13] = assay: Preemergence herbicidal evaluation, ABUTH; assay type: in vivo, Abutilon theophrasti, Medic.; conditions: preemergence
# How it was run: (§2)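 Preemergence soil spray: aqueous acetone, ~0.013–0.800 kg/ha, applied right after sowing (seed/potting-soil mix over ~1 in soil). Greenhouse, routine watering. Scored 4–5 wk post-treatment on a rating scale.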
# AMBEL Ragweed, Common [14] = assay: Preemergence herbicidal evaluation, AMBEL; assay type: in vivo, Ambrosia artemisifolia, L.; conditions: preemergence
# How it was run: as §2
# CASOB Sicklepod [15] = assay: Preemergence herbicidal evaluation, CASOB; assay type: in vivo, Cassia obtusifolia, L.; conditions: preemergence
# How it was run: as §2
# [16] = test system: CHEAL Lambsquarters, Common; assay: Preemergence herbicidal evaluation, CHEAL; assay type: in vivo, Chenopodium album, L.; conditions: preemergence
# How it was run: as §2
# ECHOG Barnyardgrass [17] = assay: Preemergence herbicidal evaluation, ECHOG; assay type: in vivo, Echinochloa crus-galli, (L.) Beau; conditions: preemergence
# How it was run: as §2
# GALAP Galium [18] = assay: Preemergence herbicidal evaluation, GALAP; assay type: in vivo, Galium aparine; conditions: preemergence
# How it was run: as §2
# [19] = test system: IPOHE Morningglory, Ivyleaf; assay: Preemergence herbicidal evaluation, IPOHE; assay type: in vivo, Ipomoea hederacea, (L.) Jacq.; conditions: preemergence
# How it was run: as §2
# SETVI Foxtail, Green [20] = assay: Preemergence herbicidal evaluation, SETVI; assay type: in vivo, Setaria viridis, (L.) Beau; conditions: preemergence
# How it was run: as §2
# GLXMAW Soybean, Williams [21] = assay: Preemergence herbicidal evaluation, GLXMAW; assay type: in vivo, Glycine max, (L.) Merr. cv Williams; conditions: preemergence
# How it was run: as §2
# [22] = test system: TRZAWR Wheat, Winter, cv Riband; assay: Preemergence herbicidal evaluation, TRZAWR; assay type: in vivo, Triticum aestivum; conditions: preemergence
# How it was run: as §2
# ORYSAT Rice, Tebonnet [23] = assay: Preemergence herbicidal evaluation, ORYSAT; assay type: in vivo, Oryza sativa, (L.); conditions: preemergence
# How it was run: as §2
# ZEAMX Corn, Field [24] = assay: Preemergence herbicidal evaluation, ZEAMX; assay type: in vivo, Zea mays, L. (Sammel-Bezeichnung); conditions: preemergence
# How it was run: as §2
smiles,measurement,setting,value
C#CCOC(=O)COc1ccc(C)cc1-n1nnc2cc(F)c(-n3c(=O)cc(C(F)(F)F)n(C)c3=O)cc21 [Example 40],Postemergence herbicidal rating ABUTH,ABUTH Velvetleaf [1]; 0.008 kg/ha,9.0
same,Postemergence herbicidal rating ABUTH,ABUTH Velvetleaf [1]; 0.016 kg/ha,9.0
same,Postemergence herbicidal rating ABUTH,ABUTH Velvetleaf [1]; 0.032 kg/ha,9.0
same,Postemergence herbicidal rating ABUTH,ABUTH Velvetleaf [1]; 0.062 kg/ha,9.0
same,Postemergence herbicidal rating AMBEL,"AMBEL Ragweed, Common [2]; 0.008 kg/ha",9.0
same,Postemergence herbicidal rating AMBEL,"AMBEL Ragweed, Common [2]; 0.016 kg/ha",7.0
same,Postemergence herbicidal rating AMBEL,"AMBEL Ragweed, Common [2]; 0.032 kg/ha",9.0
same,Postemergence herbicidal rating AMBEL,"AMBEL Ragweed, Common [2]; 0.062 kg/ha",7.0
same,Postemergence herbicidal rating CASOB,CASOB Sicklepod [3]; 0.008 kg/ha,1.0
same,Postemergence herbicidal rating CASOB,CASOB Sicklepod [3]; 0.016 kg/ha,1.0
same,Postemergence herbicidal rating CASOB,CASOB Sicklepod [3]; 0.032 kg/ha,3.0
same,Postemergence herbicidal rating CASOB,CASOB Sicklepod [3]; 0.062 kg/ha,6.0
same,Postemergence herbicidal rating CHEAL,[4]; 0.008 kg/ha,4.0
same,Postemergence herbicidal rating CHEAL,[4]; 0.016 kg/ha,3.0
same,Postemergence herbicidal rating CHEAL,[4]; 0.032 kg/ha,7.0
same,Postemergence herbicidal rating CHEAL,[4]; 0.062 kg/ha,9.0
same,Postemergence herbicidal rating ECHCG,ECHOG Barnyardgrass [5]; 0.008 kg/ha,4.0
same,Postemergence herbicidal rating ECHCG,ECHOG Barnyardgrass [5]; 0.016 kg/ha,9.0
same,Postemergence herbicidal rating ECHCG,ECHOG Barnyardgrass [5]; 0.032 kg/ha,9.0
same,Postemergence herbicidal rating ECHCG,ECHOG Barnyardgrass [5]; 0.062 kg/ha,9.0
same,Postemergence herbicidal rating GALAP,GALAP Galium [6]; 0.008 kg/ha,1.0
same,Postemergence herbicidal rating GALAP,GALAP Galium [6]; 0.016 kg/ha,2.0
same,Postemergence herbicidal rating GALAP,GALAP Galium [6]; 0.032 kg/ha,2.0
same,Postemergence herbicidal rating GALAP,GALAP Galium [6]; 0.062 kg/ha,5.0
same,Postemergence herbicidal rating IPOHE,[7]; 0.008 kg/ha,9.0
same,Postemergence herbicidal rating IPOHE,[7]; 0.016 kg/ha,9.0
same,Postemergence herbicidal rating IPOHE,[7]; 0.032 kg/ha,9.0
same,Postemergence herbicidal rating IPOHE,[7]; 0.062 kg/ha,9.0
same,Postemergence herbicidal rating SETVI,"SETVI Foxtail, Green [8]; 0.008 kg/ha",6.0
same,Postemergence herbicidal rating SETVI,"SETVI Foxtail, Green [8]; 0.016 kg/ha",9.0
same,Postemergence herbicidal rating SETVI,"SETVI Foxtail, Green [8]; 0.032 kg/ha",9.0
same,Postemergence herbicidal rating SETVI,"SETVI Foxtail, Green [8]; 0.062 kg/ha",9.0
same,Postemergence herbicidal rating GLXMAW,"GLXMAW Soybean, Williams [9]; 0.008 kg/ha",5.5
same,Postemergence herbicidal rating GLXMAW,"GLXMAW Soybean, Williams [9]; 0.016 kg/ha",6.0
same,Postemergence herbicidal rating GLXMAW,"GLXMAW Soybean, Williams [9]; 0.032 kg/ha",6.5
same,Postemergence herbicidal rating GLXMAW,"GLXMAW Soybean, Williams [9]; 0.062 kg/ha",7.0
same,Postemergence herbicidal rating TRZAWR,[10]; 0.008 kg/ha,4.0
same,Postemergence herbicidal rating TRZAWR,[10]; 0.016 kg/ha,5.0
same,Postemergence herbicidal rating TRZAWR,[10]; 0.032 kg/ha,5.5
same,Postemergence herbicidal rating TRZAWR,[10]; 0.062 kg/ha,6.5
same,Postemergence herbicidal rating ORYSAT,"ORYSAT Rice, Tebonnet [11]; 0.008 kg/ha",4.0
same,Postemergence herbicidal rating ORYSAT,"ORYSAT Rice, Tebonnet [11]; 0.016 kg/ha",5.0
same,Postemergence herbicidal rating ORYSAT,"ORYSAT Rice, Tebonnet [11]; 0.032 kg/ha",5.0
same,Postemergence herbicidal rating ORYSAT,"ORYSAT Rice, Tebonnet [11]; 0.062 kg/ha",6.5
same,Postemergence herbicidal rating ZEAMX,"ZEAMX Corn, Field [12]; 0.008 kg/ha",5.0
same,Postemergence herbicidal rating ZEAMX,"ZEAMX Corn, Field [12]; 0.016 kg/ha",7.5
same,Postemergence herbicidal rating ZEAMX,"ZEAMX Corn, Field [12]; 0.032 kg/ha",7.5
same,Postemergence herbicidal rating ZEAMX,"ZEAMX Corn, Field [12]; 0.062 kg/ha",8.5
same,ABUTH herbicidal rating,ABUTH Velvetleaf [13]; rate 0.016 kg/ha,1.0
same,ABUTH herbicidal rating,ABUTH Velvetleaf [13]; rate 0.032 kg/ha,9.0
same,ABUTH herbicidal rating,ABUTH Velvetleaf [13]; rate 0.062 kg/ha,9.0
same,ABUTH herbicidal rating,ABUTH Velvetleaf [13]; rate 0.125 kg/ha,9.0
same,AMBEL herbicidal rating,"AMBEL Ragweed, Common [14]; rate 0.016 kg/ha",0.0
same,AMBEL herbicidal rating,"AMBEL Ragweed, Common [14]; rate 0.032 kg/ha",4.0
same,AMBEL herbicidal rating,"AMBEL Ragweed, Common [14]; rate 0.062 kg/ha",3.0
same,AMBEL herbicidal rating,"AMBEL Ragweed, Common [14]; rate 0.125 kg/ha",4.0
same,CASOB herbicidal rating,CASOB Sicklepod [15]; rate 0.016 kg/ha,0.0
same,CASOB herbicidal rating,CASOB Sicklepod [15]; rate 0.032 kg/ha,4.0
same,CASOB herbicidal rating,CASOB Sicklepod [15]; rate 0.062 kg/ha,3.0
same,CASOB herbicidal rating,CASOB Sicklepod [15]; rate 0.125 kg/ha,4.0
same,CHEAL herbicidal rating,[16]; rate 0.016 kg/ha,9.0
same,CHEAL herbicidal rating,[16]; rate 0.032 kg/ha,9.0
same,CHEAL herbicidal rating,[16]; rate 0.062 kg/ha,9.0
same,CHEAL herbicidal rating,[16]; rate 0.125 kg/ha,9.0
same,ECHCG herbicidal rating,ECHOG Barnyardgrass [17]; rate 0.016 kg/ha,0.0
same,ECHCG herbicidal rating,ECHOG Barnyardgrass [17]; rate 0.032 kg/ha,0.0
same,ECHCG herbicidal rating,ECHOG Barnyardgrass [17]; rate 0.062 kg/ha,0.0
same,ECHCG herbicidal rating,ECHOG Barnyardgrass [17]; rate 0.125 kg/ha,4.0
same,GALAP herbicidal rating,GALAP Galium [18]; rate 0.032 kg/ha,0.0
same,GALAP herbicidal rating,GALAP Galium [18]; rate 0.062 kg/ha,7.0
same,GALAP herbicidal rating,GALAP Galium [18]; rate 0.125 kg/ha,9.0
same,IPOHE herbicidal rating,[19]; rate 0.016 kg/ha,0.0
same,IPOHE herbicidal rating,[19]; rate 0.032 kg/ha,1.0
same,IPOHE herbicidal rating,[19]; rate 0.062 kg/ha,3.0
same,IPOHE herbicidal rating,[19]; rate 0.125 kg/ha,9.0
same,SETVI herbicidal rating,"SETVI Foxtail, Green [20]; rate 0.016 kg/ha",0.0
same,SETVI herbicidal rating,"SETVI Foxtail, Green [20]; rate 0.032 kg/ha",4.0
same,SETVI herbicidal rating,"SETVI Foxtail, Green [20]; rate 0.062 kg/ha",5.0
same,SETVI herbicidal rating,"SETVI Foxtail, Green [20]; rate 0.125 kg/ha",6.0
same,GLXMAW herbicidal rating,"GLXMAW Soybean, Williams [21]; rate 0.016 kg/ha",0.0
same,GLXMAW herbicidal rating,"GLXMAW Soybean, Williams [21]; rate 0.032 kg/ha",0.0
same,GLXMAW herbicidal rating,"GLXMAW Soybean, Williams [21]; rate 0.062 kg/ha",1.0
same,GLXMAW herbicidal rating,"GLXMAW Soybean, Williams [21]; rate 0.125 kg/ha",0.0
same,TRZAWR herbicidal rating,[22]; rate 0.016 kg/ha,0.0
same,TRZAWR herbicidal rating,[22]; rate 0.032 kg/ha,0.0
same,TRZAWR herbicidal rating,[22]; rate 0.062 kg/ha,0.0
same,TRZAWR herbicidal rating,[22]; rate 0.125 kg/ha,2.0
same,ORYSAT herbicidal rating,"ORYSAT Rice, Tebonnet [23]; rate 0.016 kg/ha",0.0
same,ORYSAT herbicidal rating,"ORYSAT Rice, Tebonnet [23]; rate 0.032 kg/ha",0.0
same,ORYSAT herbicidal rating,"ORYSAT Rice, Tebonnet [23]; rate 0.062 kg/ha",0.0
same,ORYSAT herbicidal rating,"ORYSAT Rice, Tebonnet [23]; rate 0.125 kg/ha",2.0
same,ZEAMX herbicidal rating,"ZEAMX Corn, Field [24]; rate 0.016 kg/ha",0.0
same,ZEAMX herbicidal rating,"ZEAMX Corn, Field [24]; rate 0.032 kg/ha",0.0
same,ZEAMX herbicidal rating,"ZEAMX Corn, Field [24]; rate 0.062 kg/ha",1.0
same,ZEAMX herbicidal rating,"ZEAMX Corn, Field [24]; rate 0.125 kg/ha",1.0
